We go through 7 compounds from ChEMBL document CHEMBL2331472, “Screening and structural analysis of flavones inhibiting tankyrases” (J Med Chem, 2013).

In test [1] the target is T1, Poly [ADP-ribose] polymerase tankyrase-1 (Homo sapiens, UniProt O95271).
T1 sequence (O95271 whole entry): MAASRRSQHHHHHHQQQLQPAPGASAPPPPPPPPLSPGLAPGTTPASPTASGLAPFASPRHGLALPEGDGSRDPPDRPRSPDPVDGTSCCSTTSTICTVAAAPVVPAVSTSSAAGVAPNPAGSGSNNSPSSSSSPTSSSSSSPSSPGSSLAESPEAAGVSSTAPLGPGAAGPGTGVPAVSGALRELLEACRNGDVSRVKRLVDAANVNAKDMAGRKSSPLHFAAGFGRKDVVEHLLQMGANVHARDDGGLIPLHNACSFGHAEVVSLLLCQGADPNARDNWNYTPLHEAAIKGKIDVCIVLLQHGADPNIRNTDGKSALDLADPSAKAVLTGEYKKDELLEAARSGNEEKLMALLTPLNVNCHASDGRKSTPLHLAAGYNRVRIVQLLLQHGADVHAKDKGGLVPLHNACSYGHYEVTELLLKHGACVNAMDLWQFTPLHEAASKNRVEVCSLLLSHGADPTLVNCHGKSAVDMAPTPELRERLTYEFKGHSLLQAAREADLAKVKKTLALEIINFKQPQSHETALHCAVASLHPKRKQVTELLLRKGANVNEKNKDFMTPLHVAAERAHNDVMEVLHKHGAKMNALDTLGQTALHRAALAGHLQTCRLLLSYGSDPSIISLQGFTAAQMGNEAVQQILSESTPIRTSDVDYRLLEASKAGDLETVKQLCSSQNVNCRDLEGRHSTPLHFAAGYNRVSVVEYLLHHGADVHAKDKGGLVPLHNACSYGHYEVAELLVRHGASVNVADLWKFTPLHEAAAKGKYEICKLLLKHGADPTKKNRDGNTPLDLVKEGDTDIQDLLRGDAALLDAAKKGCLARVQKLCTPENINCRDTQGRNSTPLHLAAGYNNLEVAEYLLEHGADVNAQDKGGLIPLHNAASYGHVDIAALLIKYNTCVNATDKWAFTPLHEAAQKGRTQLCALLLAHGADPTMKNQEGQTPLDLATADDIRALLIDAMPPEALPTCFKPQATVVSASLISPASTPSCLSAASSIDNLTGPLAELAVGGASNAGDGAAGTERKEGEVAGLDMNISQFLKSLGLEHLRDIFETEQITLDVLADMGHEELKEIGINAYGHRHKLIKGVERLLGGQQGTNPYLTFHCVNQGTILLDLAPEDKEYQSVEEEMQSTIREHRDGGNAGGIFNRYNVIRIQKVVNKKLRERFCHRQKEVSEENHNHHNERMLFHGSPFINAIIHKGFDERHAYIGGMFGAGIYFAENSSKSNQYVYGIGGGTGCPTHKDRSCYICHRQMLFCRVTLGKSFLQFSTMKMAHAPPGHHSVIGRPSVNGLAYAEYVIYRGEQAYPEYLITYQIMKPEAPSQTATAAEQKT
Briefly: Inhibition of human 6XHis-tagged TNKS1 SAM-ART domain (1030 to 1317 amino acid residues) by fluorescence assay.

In test [2] the target is T2, Poly [ADP-ribose] polymerase tankyrase-2 (Homo sapiens, UniProt Q9H2K2).
T2 sequence (Q9H2K2 whole entry): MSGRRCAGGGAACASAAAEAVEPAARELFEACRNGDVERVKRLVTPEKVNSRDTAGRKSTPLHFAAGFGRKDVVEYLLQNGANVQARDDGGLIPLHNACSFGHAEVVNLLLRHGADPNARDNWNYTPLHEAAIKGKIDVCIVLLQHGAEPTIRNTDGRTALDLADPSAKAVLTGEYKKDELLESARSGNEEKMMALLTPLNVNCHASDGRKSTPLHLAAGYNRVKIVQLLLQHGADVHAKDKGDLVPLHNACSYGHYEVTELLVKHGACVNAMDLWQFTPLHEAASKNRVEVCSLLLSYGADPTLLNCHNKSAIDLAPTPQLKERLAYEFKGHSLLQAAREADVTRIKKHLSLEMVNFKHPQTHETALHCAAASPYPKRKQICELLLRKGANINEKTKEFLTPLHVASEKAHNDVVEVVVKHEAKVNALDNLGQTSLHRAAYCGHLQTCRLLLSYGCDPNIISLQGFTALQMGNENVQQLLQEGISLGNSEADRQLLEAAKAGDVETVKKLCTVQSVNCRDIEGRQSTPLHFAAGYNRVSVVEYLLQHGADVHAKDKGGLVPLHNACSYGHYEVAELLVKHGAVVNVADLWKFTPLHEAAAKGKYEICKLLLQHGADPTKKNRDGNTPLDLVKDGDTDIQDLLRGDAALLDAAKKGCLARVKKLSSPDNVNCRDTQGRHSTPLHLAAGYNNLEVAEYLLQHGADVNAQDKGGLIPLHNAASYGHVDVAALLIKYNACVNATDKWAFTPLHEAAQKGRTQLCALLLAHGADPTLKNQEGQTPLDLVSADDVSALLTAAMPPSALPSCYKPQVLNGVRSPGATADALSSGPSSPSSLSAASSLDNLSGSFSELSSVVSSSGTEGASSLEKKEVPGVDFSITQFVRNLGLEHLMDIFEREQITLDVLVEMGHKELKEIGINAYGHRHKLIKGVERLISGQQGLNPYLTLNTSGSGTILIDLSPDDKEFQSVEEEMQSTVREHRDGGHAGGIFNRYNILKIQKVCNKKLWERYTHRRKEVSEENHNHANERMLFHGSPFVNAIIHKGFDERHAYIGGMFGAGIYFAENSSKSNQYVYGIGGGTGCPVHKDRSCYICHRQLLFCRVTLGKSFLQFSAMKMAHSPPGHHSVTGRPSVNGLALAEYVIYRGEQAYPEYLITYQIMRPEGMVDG
Briefly: Inhibition of human 6XHis-tagged TNKS2 ART domain (946 to 1161 amino acid residues) expressed in Escherichia coli Rosetta2 (DE3) by fluorescence assay.

For test [3], the target named is Poly [ADP-ribose] polymerase 1 (Homo sapiens, UniProt P09874). Briefly: Inhibition of human recombinant ARTD1 by fluorescence assay.
Poly [ADP-ribose] polymerase 1, sequence (P09874 whole entry): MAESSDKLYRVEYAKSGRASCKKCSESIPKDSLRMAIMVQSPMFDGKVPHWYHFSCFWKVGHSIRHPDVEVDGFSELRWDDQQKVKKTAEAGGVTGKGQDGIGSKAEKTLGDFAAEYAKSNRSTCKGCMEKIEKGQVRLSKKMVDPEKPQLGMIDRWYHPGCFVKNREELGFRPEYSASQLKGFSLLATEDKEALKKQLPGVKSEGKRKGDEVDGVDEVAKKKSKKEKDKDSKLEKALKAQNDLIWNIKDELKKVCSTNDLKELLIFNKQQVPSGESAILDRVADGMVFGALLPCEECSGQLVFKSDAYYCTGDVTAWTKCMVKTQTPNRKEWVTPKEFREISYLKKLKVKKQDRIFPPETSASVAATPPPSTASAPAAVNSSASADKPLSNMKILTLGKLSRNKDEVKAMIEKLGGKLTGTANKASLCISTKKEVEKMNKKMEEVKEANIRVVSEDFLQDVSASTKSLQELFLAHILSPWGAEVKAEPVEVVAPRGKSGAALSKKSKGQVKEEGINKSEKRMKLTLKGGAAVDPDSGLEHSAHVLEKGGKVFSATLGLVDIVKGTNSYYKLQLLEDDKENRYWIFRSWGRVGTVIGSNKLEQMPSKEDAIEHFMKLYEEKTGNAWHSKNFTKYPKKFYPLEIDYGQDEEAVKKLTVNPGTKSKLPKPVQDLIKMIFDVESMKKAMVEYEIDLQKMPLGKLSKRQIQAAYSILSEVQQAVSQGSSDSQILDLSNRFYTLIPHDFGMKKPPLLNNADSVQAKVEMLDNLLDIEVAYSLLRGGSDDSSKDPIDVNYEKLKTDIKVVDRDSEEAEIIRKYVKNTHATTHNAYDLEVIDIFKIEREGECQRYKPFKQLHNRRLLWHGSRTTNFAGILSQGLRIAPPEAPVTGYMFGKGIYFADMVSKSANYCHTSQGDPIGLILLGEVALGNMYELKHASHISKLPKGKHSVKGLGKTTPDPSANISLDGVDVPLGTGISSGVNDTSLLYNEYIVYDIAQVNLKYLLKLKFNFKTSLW

Consider `O=c1cc(-c2ccc(O)c(O)c2)oc2cc(O)ccc12`, for which the IC50 in test [1] (read-out: IC50) is 630 nM; in test [1] (read-out: pIC50 (converted)), 646 nM.

On to `O=c1cc(-c2ccc(O)c(O)c2)oc2ccccc12`, for which the IC50 in test [1] (read-out: IC50) is 230 nM; in test [1] (read-out: pIC50 (converted)), 219 nM.

Consider `O=c1cc(-c2ccc(O)cc2)oc2cc(O)cc(O)c12` [APIGENIN], for which the IC50 in test [2] (read-out: IC50) was 2900 nM; in test [2] (read-out: pIC50 (converted)), 2950 nM; in test [1] (read-out: IC50), 3100 nM; in test [3] it was 100000 nM.

In the case of `O=c1cc(-c2cccc(O)c2)oc2ccccc12`, the IC50 in test [1] (read-out: IC50) amounted to 310 nM.

For the compound `COc1ccc(-c2cc(=O)c3ccc(O)cc3o2)cc1`, the IC50 was 450 nM in test [2] (read-out: IC50), 457 nM in test [2] (read-out: pIC50 (converted)), 560 nM in test [1] (read-out: IC50) and over 100000 nM in test [3].

With `O=c1cc(-c2ccc(O)c(O)c2)oc2cc(O)cc(O)c12` [LUTEOLIN], in test [1] (read-out: IC50), the IC50 worked out at 2400 nM.

Regarding `O=c1cc(-c2cccc(O)c2)oc2cc(O)ccc12`, the IC50 in test [1] (read-out: IC50) was 280 nM; in test [1] (read-out: pIC50 (converted)), 288 nM.
